Experimental data: patent US20240083888A1, “SMALL MOLECULE INHIBITOR FOR CATHEPSIN C AND MEDICINAL USE THEREOF” (REISTONE BIOPHARMA COMPANY LIMITED, priority 2020, published 2024)
Structures can show the parent of a compound that is named as a salt. Where two headings read alike, the source gives them in different places.

Target: rhCatC (Homo sapiens (Human), UniProt P53634)
Assay: In vitro enzyme activity experiment of rhCatC (AMC fluorescence assay)
Format: biochemical
Description: The in vitro inhibitory effect of compounds and positive control on rhCatC enzyme activity was evaluated by AMC fluorescence assay. rhCatC can catalyze the reaction of substrate peptide H-Gly-Arg-AMC, and release AMC to generate fluorescence. […] The compound was diluted with DMSO to a 384-well echo plate at a concentration of 100× of the highest concentration at the beginning of the experiment. 0.2 μL of the diluted compound was pipetted to a black-bottomed 384-well reaction plate for later use. The negative control well was DMSO. • 2) Activation of rhCatC: RhCatC and rhCatL were added to the activation buffer to obtain a final concentration of rhCatC of 100 μg/mL and a final concentration of rhCatL of 20 μg/mL, and incubated at room temperature for 1 hour. • 3) Enzyme activity reaction: Activated rhCatC was diluted to 0.4 μg/mL with the reaction buffer. The solution was added to the black-bottom 384-well reaction plate ([…]). 10 μL of the buffer was added for the vehicle control group. The plate containing compounds in its wells was incubated at room temperature for 30 minutes.
The RLU data was read, the inhibition rate was calculated, and the IC50 value was calculated according to the fitting curve of concentration and inhibition rate.

[1] = rhCatC enzyme, substrate H-Gly-Arg-AMC, read-out: Biological activity IC50

rhCatC, sequence (P53634 25-134): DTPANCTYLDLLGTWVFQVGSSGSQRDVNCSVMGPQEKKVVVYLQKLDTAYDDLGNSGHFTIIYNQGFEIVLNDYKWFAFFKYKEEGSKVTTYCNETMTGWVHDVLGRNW
rhCatC, sequence (P53634 231-394): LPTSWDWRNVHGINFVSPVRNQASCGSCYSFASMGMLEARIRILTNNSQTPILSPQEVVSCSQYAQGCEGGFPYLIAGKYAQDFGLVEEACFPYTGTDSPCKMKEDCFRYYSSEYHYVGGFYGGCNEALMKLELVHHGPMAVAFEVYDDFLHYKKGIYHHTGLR
rhCatC, sequence (P53634 395-463): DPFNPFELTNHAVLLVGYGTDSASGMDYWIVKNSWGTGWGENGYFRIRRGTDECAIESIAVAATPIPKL

Structure (SMILES)	IC50 [1] [nM]	IC50 [nM]
N#C[C@H](Cc1ccc2c(c1)CN(c1ccccc1)C2=O)NC(=O)C1(N)CCOCC1 [Compound 1, (S)-4-Amino-N-(1-cyano-2-(1-oxo-2-phenylisoindolin-5-yl)ethyl)tetrahydro-2H-pyran-4-carboxamide]	42	
N#C[C@H](Cc1ccc2c(c1)CN(c1ccccc1)C2=O)NC(=O)[C@@H]1CNCCCO1 [Compound 2, (S)—N—((S)-1-Cyano-2-(1-oxo-2-phenylisoindolin-5-yl)ethyl)-1,4-oxazepane-2-carboxamide]	710	
N#CC(Cc1ccc2c(c1)CCCC2)NC(=O)[C@@H]1CNCCCO1 (stereo partly drawn) [Compound 3, (2S)—N-(1-Cyano-2-(5,6,7,8-tetrahydronaphthalen-2-yl)ethyl)-1,4-oxazepane-2-carboxamide trifluoroacetate]	4250	
N#CC(Cc1ccc2c(c1)CCCC2)NC(=O)C1(N)CCOCC1 (centres unmarked) [Compound 4, 4-Amino-N-(1-cyano-2-(5,6,7,8-tetrahydronaphthalen-2-yl)ethyl)tetrahydro-2H-pyran-4-carboxamide]	54	
N#CC(Cc1ccc2c(c1)CCC2)NC(=O)[C@@H]1CNCCCO1 (stereo partly drawn) [Compound 5, (2S)—N-(1-Cyano-2-(2,3-dihydro-1H-inden-5-yl)ethyl)-1,4-oxazepane-2-carboxamide trifluoroacetate]	3590	
N#CC(Cc1ccc2c(c1)CCC2)NC(=O)C1(N)CCOCC1 (centres unmarked) [Compound 6, 4-Amino-N-(1-cyano-2-(2,3-dihydro-1H-inden-5-yl)ethyl)tetrahydro-2H-pyran-4-carboxamide]	56	
CN1CCc2cc(C[C@@H](C#N)NC(=O)[C@@H]3CNCCCO3)ccc2C1 [Compound 9, (S)—N—((S)-1-Cyano-2-(2-methyl-1,2,3,4-tetrahydroisoquinolin-6-yl)ethyl)-1,4-oxazepane-2-carboxamide]	1740	
N#C[C@H](Cc1ccc2c(c1)OCCC2)NC(=O)C1(N)CCOCC1 [Compound 10, (S)-4-Amino-N-(2-(chroman-7-yl)-1-cyanoethyl)tetrahydro-2H-pyran-4-carboxamide]	74	
N#CC(Cc1ccc2c(c1)OCc1cc(F)ccc1-2)NC(=O)[C@@H]1CNCCCO1 (stereo partly drawn) [Compound 11, (2S)—N-(1-Cyano-2-(8-fluoro-6H-benzo[c]chromen-3-yl)ethyl)-1,4-oxazepane-2-carboxamide formate]	74	
N#CC(Cc1ccc2c(c1)COc1cc(F)ccc1-2)NC(=O)[C@@H]1CNCCCO1 (stereo partly drawn) [Compound 15, (2S)—N-(1-Cyano-2-(3-fluoro-6H-benzo[c]chromen-8-yl)ethyl)-1,4-oxazepane-2-carboxamide]	304	
N#Cc1cc2c(cn1)-c1cc(F)c(C[C@@H](C#N)NC(=O)[C@@H]3CNCCCO3)cc1OC2 [Compound 19, (S)—N—((S)-1-Cyano-2-(3-cyano-9-fluoro-5H-chromeno[4,3-c]pyridin-8-yl)ethyl)-1,4-oxazepane-2-carboxamide]		32
CC1(C)Oc2cc(C[C@@H](C#N)NC(=O)[C@@H]3CNCCCO3)c(F)cc2-c2ccc(C#N)cc21 [Compound 27, (S)—N—((S)-1-Cyano-2-(8-cyano-2-fluoro-6,6-dimethyl-6H-benzo[c]chromen-3-yl)ethyl)-1,4-oxazepane-2-carboxamide]	23	
N#Cc1cnc2c(c1)COc1cc(CC(C#N)NC(=O)[C@@H]3CNCCCO3)c(F)cc1-2 (stereo partly drawn) [Compound 33, (2S)—N-(1-Cyano-2-(3-cyano-9-fluoro-5H-chromeno[4,3-b]pyridin-8-yl)ethyl)-1,4-oxazepane-2-carboxamide]	85	
N#CC(Cc1ccc2c(c1)OCc1ccc(C3CCNC3)cc1-2)NC(=O)C1(N)CCOCC1 (centres unmarked) [Compound 34, 4-Amino-N-(1-cyano-2-(9-(pyrrolidin-3-yl)-6H-benzo[c]chromen-3-yl)ethyl)tetrahydro-2H-pyran-4-carboxamide]	6.2	
N#C[C@H](Cc1cc2c(cc1F)-c1cc(C3COC3)c(F)cc1CO2)NC(=O)[C@@H]1CNCCCO1 [Compound 38A, (S)—N—((S)-1-Cyano-2-(2,8-difluoro-9-(oxetan-3-yl)-6H-benzo[c]chromen-3-yl)ethyl)-1,4-oxazepane-2-carboxamide]	1.3	
N#C[C@@H](Cc1cc2c(cc1F)-c1cc(C3COC3)c(F)cc1CO2)NC(=O)[C@@H]1CNCCCO1 [Compound 38B, (S)—N—((R)-1-Cyano-2-(2,8-difluoro-9-(oxetan-3-yl)-6H-benzo[c]chromen-3-yl)ethyl)-1,4-oxazepane-2-carboxamide]	76	

Structure (SMILES)	IC50 [1] [nM]	IC50 [nM]
N#CC(Cc1ccc2c(c1)CCOc1cc(F)ccc1-2)NC(=O)C1(N)CCOCC1 (centres unmarked) [Compound 39, 4-Amino-N-(1-cyano-2-(3-fluoro-6,7-dihydrodibenzo[b,d]oxepin-9-yl)ethyl)tetrahydro-2H-pyran-4-carboxamide]	46	
N#C[C@H](Cc1ccc2c(c1)oc1cc(F)ccc12)NC(=O)C1(N)CCOCC1 [Compound 42, (S)-4-Amino-N-(1-cyano-2-(7-fluorodibenzo[b,d]furan-3-yl)ethyl)tetrahydro-2H-pyran-4-carboxamide]	5.7	
CS(=O)(=O)c1ccc2c(c1)-c1cc(F)c(CC(C#N)NC(=O)[C@@H]3CNCCCO3)cc1OC2 (stereo partly drawn) [Compound 43, (2S)—N-(1-Cyano-2-(2-fluoro-9-(methylsulfonyl)-6H-benzo[c]chromen-3-yl)ethyl)-1,4-oxazepane-2-carboxamide]		26
N#C[C@H](Cc1ccc2c(c1)OCCN(c1ccc(F)cc1)C2=O)NC(=O)C1(N)CCOCC1 [Compound 44, (S)-4-Amino-N-(1-cyano-2-(4-(4-fluorophenyl)-5-oxo-2,3,4,5-tetrahydrobenzo[f][1,4]oxazepin-8-yl)ethyl)tetrahydro-2H-pyran-4-carboxamide]	39	
N#Cc1ccc(N2Cc3cc(C[C@@H](C#N)NC(=O)C4(N)CCOCC4)ccc3C2=O)cc1 [Compound 45, (S)-4-Amino-N-(1-cyano-2-(2-(4-cyanophenyl)-1-oxoisoindolin-5-yl)ethyl)tetrahydro-2H-pyran-4-carboxamide]	72	
N#Cc1ccc(C(=O)N2Cc3ccc(C[C@@H](C#N)NC(=O)C4(N)CCOCC4)cc3C2)cc1 [Compound 46, (S)-4-Amino-N-(1-cyano-2-(2-(4-cyanobenzoyl)isoindolin-5-yl)ethyl)tetrahydro-2H-pyran-4-carboxamide]	54	
N#Cc1cccc(N2Cc3cc(C[C@@H](C#N)NC(=O)C4(N)CCOCC4)ccc3C2=O)c1 [Compound 47, (S)-4-Amino-N-(1-cyano-2-(2-(3-cyanophenyl)-1-oxoisoindolin-5-yl)ethyl)tetrahydro-2H-pyran-4-carboxamide formate]	29	
Cn1c(=O)oc2ccc(N3Cc4cc(C[C@@H](C#N)NC(=O)C5(N)CCOCC5)ccc4C3=O)cc21 [Compound 48, (S)-4-Amino-N-(1-cyano-2-(2-(3-methyl-2-oxo-2,3-dihydrobenzo[d]oxazol-5-yl)-1-oxoisoindolin-5-yl)ethyl)tetrahydro-2H-pyran-4-carboxamide]	29	
N#C[C@H](Cc1ccc2c(c1)CCN(c1ccccc1)C2=O)NC(=O)C1(N)CCOCC1 [Compound 49, (S)-4-Amino-N-(1-cyano-2-(1-oxo-2-phenyl-1,2,3,4-tetrahydroisoquinolin-6-yl)ethyl)tetrahydro-2H-pyran-4-carboxamide]	57	
N#C[C@H](Cc1ccc2c(c1)C(=O)N(c1ccccc1)C2)NC(=O)C1(N)CCOCC1 [Compound 50, (S)-4-Amino-N-(1-cyano-2-(3-oxo-2-phenylisoindolin-5-yl)ethyl)tetrahydro-2H-pyran-4-carboxamide]	19	
CN1CCc2cc(C[C@@H](C#N)NC(=O)C3(N)CCOCC3)ccc2C1 [Compound 51, (S)-4-Amino-N-(1-cyano-2-(2-methyl-1,2,3,4-tetrahydroisoquinolin-6-yl)ethyl)tetrahydro-2H-pyran-4-carboxamide]	39	
N#C[C@H](Cc1ccc2c(c1)COCC2)NC(=O)C1(N)CCOCC1 [Compound 52, (S)-4-Amino-N-(1-cyano-2-(isochroman-7-yl)ethyl)tetrahydro-2H-pyran-4-carboxamide trifluoroacetate]	138	
N#C[C@H](Cc1ccc2c(c1)OCCN(c1ccc(F)cc1)C2)NC(=O)C1(N)CCOCC1 [Compound 53, (S)-4-Amino-N-(1-cyano-2-(4-(4-fluorophenyl)-2,3,4,5-tetrahydrobenzo[f][1,4]oxazepin-8-yl)ethyl)tetrahydro-2H-pyran-4-carboxamide]	196	
N#C[C@H](Cc1ccc2c(c1)CN(c1ccc(F)cc1)C2)NC(=O)C1(N)CCOCC1 [Compound 54, (S)-4-Amino-N-(1-cyano-2-(2-(4-fluorophenyl)isoindolin-5-yl)ethyl)tetrahydro-2H-pyran-4-carboxamide]	28	
N#C[C@H](Cc1ccc2c(c1)CN(C(=O)c1ccc(F)cc1)C2)NC(=O)C1(N)CCOCC1 [Compound 55, (S)-4-Amino-N-(1-cyano-2-(2-(4-fluorobenzoyl)isoindolin-5-yl)ethyl)tetrahydro-2H-pyran-4-carboxamide]	174	
N#C[C@H](Cc1ccc2c(c1)CCN(C(=O)c1ccc(F)cc1)C2)NC(=O)C1(N)CCOCC1 [Compound 56, (S)-4-Amino-N-(1-cyano-2-(2-(4-fluorobenzoyl)-1,2,3,4-tetrahydroisoquinolin-6-yl)ethyl)tetrahydro-2H-pyran-4-carboxamide]	37	
